Experimental data reported in patent US11464763B2, “Parasiticidal compositions comprising an isoxazoline active agent, methods and uses thereof” (BOEHRINGER INGELHEIM ANIMAL HEALTH USA INC., priority 2011, dated 2022).

Assays:
[1] = system: Rhipicephalus (Boophilus) microplus; test: Pour-on tick weight efficacy against Rhipicephalus (Boophilus) microplus in cattle (Example 15); type: in vivo
Description: The efficacy of two pour-on formulations of the invention comprising Compound A at doses of 2.5 mg/kg and 10 mg/kg were tested against infestations of Rhipicephalus (Boophilus) microplus ticks compared with an untreated control. Five healthy head of cattle of 6 to 15 months of age weighing between 100 to 200 kg were used in each study group. Cattle in Group 1 were untreated (control). Cattle in Group 2 were treated on Day 0 with a pour-on formulation comprising Compound A at a concentration of 2.5% (w/v) in DES at a dose of 2.5 mg/kg; and cattle in Group 3 were treated on Day 0 with a pour-on formulation comprising Compound A at a concentration of 10% (w/v) in DES at a dose of 10 mg/kg. Several weeks before treatment, cattle are infested three times a week with approximately 2500 Rhipicephalus (Boophilus) microplus larvae to establish ongoing infestations. Cattle in Groups 2 and 3 were treated with the respective compositions on Day 0 by measuring the required amount of the solution into a marked disposable syringe and applying the material evenly along the mid-line of the back of each animal from the withers to the tail head.
Each animal was challenged by infestation with approximately 5000 R. microplus larvae on Days 7 and 21 and every 14 days thereafter. Ticks dropping from each animal in the previous 24 hours were collected daily and counted from Day 1 until the end of the study. Since the life cycle of the ticks from the point of infestation with larvae until engorged ticks fall off is approximately 21 days (average), the assessment of efficacy for the challenges on Days 7 and 21 and every 14 days thereafter, was done for a range of 7 or 8 days starting approximately 21 days after the challenge. The assessment of efficacy at the beginning of the study was done from day 1 until Day 21.
In addition, the ticks collected were weighed as a group to measure the impact of the treatment on the weight gain of the ticks compared to the control to assess the vitality and reproductive capability of the treated ticks. […] Tables 16A and 16B show the % efficacy of the two pour-on formulations based on the weight of the ticks collected. […] As evidenced from the tables and the figures, the pour-on formulations of the invention at both 2.5 mg/kg and 10 mg/kg provide excellent efficacy against Rhipicephalus (Boophilus) microplus ticks for an extended period of time. […] Furthermore, as shown in Tables 16A and 16B, the two pour-on compositions were extremely effective against ticks based on the weight of the ticks collected. […] The extremely long lasting efficacy above 90% for pour-on composition against Rhipicephalus (Boophilus) microplus ticks is remarkable compared with pour-on formulations known in the art.

Ctenocephalides felis = test: Spot-on efficacy at 1 mg/kg against Ctenocephalides felis fleas in cats (Example 7); type: in vivo; details: for efficacy against fleas: Group 2 (DMI)
Description: The efficacy of several spot-on formulations comprising Cmpd. A dosed at 1 mg/kg body weight in different carrier vehicles against fleas in cats was studied. Five cats each were allocated to 6 Treatment Groups. The […] per study group were subjected to weekly infestations followed by 24 h flea counts for 5 to 8 weeks, according to the following Group allocations: Group 1—untreated control; Group 2-1.0% (w/v) Cmpd. A in DMI; Group 3-1.0% (w/v) Cmpd. A in diethyl sebacate (DES); Group 4-1.0% (w/v) Cmpd. A in 9% lauryl lactate+DES; Group 5—1% (w/v) Cmpd. A in 8% ethyl oleate+DES; and Group 6-1% (w/v) Cmpd. A in a vehicle comprising Transcutol®+10% (w/v) ethanol+5% polyvinylpyrrolidone+5% TWEEN 80. Cats were infested with approximately 100 C. felis on Day −1 and treated on Day 0 with the corresponding spot-on formulation by application of the formulation directly on the skin in the midline of the neck, between the base of the skull and the shoulder blades in a single spot using a 1 mL syringe. Twelve hours after treatment, fleas were removed and counted. The cats were immediately re-infested with approximately 100 fleas. Fleas were removed and counted on Day 1 at approximately 24 hours post-treatment. Cats were also infested with fleas on Days 7, 21, […], 35, 42 and 49. Fleas were removed and counted approximately 24 hours after infestation on Days 8, 22, 29, 36, 43 and 50.

`O=C(CNC(=O)c1ccc(C2=NOC(c3cc(Cl)cc(C(F)(F)F)c3)(C(F)(F)F)C2)c2ccccc12)NCC(F)(F)F` (stereo not shown) [Compound A, 4-[5-[3-chloro-5-(trifluoromethyl)phenyl]-4,5-dihydro-5-(trifluoromethyl)-3-isoxazolyl]-N-[2-oxo-2-[(2,2,2-trifluoroethyl)amino]ethyl]-1-naphthalanecarboxamide] was tested, and the “Average % Efficacy (Tick Weight)” value ([1]; Group 2: pour-on 2.5% (w/v) in DES, 2.5 mg/kg, Day 1-21) was 69.1%, the “Average % Efficacy (Tick Weight)” value ([1]; Group 2: pour-on 2.5% (w/v) in DES, 2.5 mg/kg, Day 28-34, Challenge Day 7) was 81.8% and the “Average % Efficacy (Tick Weight)” value ([1]; Group 2: pour-on 2.5% (w/v) in DES, 2.5 mg/kg, Day 41-48, Challenge Day 21) was 72.9%. For the same compound, the “Average % Efficacy (Tick Weight)” value ([1]; Group 2: pour-on 2.5% (w/v) in DES, 2.5 mg/kg, Day 55-62, Challenge Day 35) was 87.7%, the “Average % Efficacy (Tick Weight)” value ([1]; Group 2: pour-on 2.5% (w/v) in DES, 2.5 mg/kg, Day 69-76, Challenge Day 49) was 84.8% and the “Average % Efficacy (Tick Weight)” value ([1]; Group 2: pour-on 2.5% (w/v) in DES, 2.5 mg/kg, Day 83-90, Challenge Day 63) was 87.4%. For the same compound, the “Average % Efficacy (Tick Weight)” value ([1]; Group 2: pour-on 2.5% (w/v) in DES, 2.5 mg/kg, Day 97-104, Challenge Day 77) was 76.0%, the “Average % Efficacy (Tick Weight)” value ([1]; Group 2: pour-on 2.5% (w/v) in DES, 2.5 mg/kg, Day 111-118, Challenge Day 91) was 74.0% and the “Average % Efficacy (Tick Weight)” value ([1]; Group 2: pour-on 2.5% (w/v) in DES, 2.5 mg/kg, Day 132-139, Challenge Day 112) was 83.2%. For the same compound, the “Average % Efficacy (Tick Weight)” value ([1]; Group 2: pour-on 2.5% (w/v) in DES, 2.5 mg/kg, Day 146-153, Challenge Day 126) was 20.6%, the “Average % Efficacy (Tick Weight)” value ([1]; Group 2: pour-on 2.5% (w/v) in DES, 2.5 mg/kg, Day 160-167, Challenge Day 140) was 63.4% and the “Average % Efficacy (Tick Weight)” value ([1]; Group 3: pour-on 10% (w/v) in DES, 10 mg/kg, Day 1-21) was 85.4%. The “Average % Efficacy (Tick Weight)” value ([1]; Group 3: pour-on 10% (w/v) in DES, 10 mg/kg, Day 28-34, Challenge Day 7) was 95.2%, the “Average % Efficacy (Tick Weight)” value ([1]; Group 3: pour-on 10% (w/v) in DES, 10 mg/kg, Day 41-48, Challenge Day 21) was 98.3% and the “Average % Efficacy (Tick Weight)” value ([1]; Group 3: pour-on 10% (w/v) in DES, 10 mg/kg, Day 55-62, Challenge Day 35) was 96.6%. The “Average % Efficacy (Tick Weight)” value ([1]; Group 3: pour-on 10% (w/v) in DES, 10 mg/kg, Day 69-76, Challenge Day 49) was 99.2%, the “Average % Efficacy (Tick Weight)” value ([1]; Group 3: pour-on 10% (w/v) in DES, 10 mg/kg, Day 83-90, Challenge Day 63) was 98.6% and the “Average % Efficacy (Tick Weight)” value ([1]; Group 3: pour-on 10% (w/v) in DES, 10 mg/kg, Day 97-104, Challenge Day 77) was 90.2%. For the same compound, the “Average % Efficacy (Tick Weight)” value ([1]; Group 3: pour-on 10% (w/v) in DES, 10 mg/kg, Day 111-118, Challenge Day 91) was 96.0%, the “Average % Efficacy (Tick Weight)” value ([1]; Group 3: pour-on 10% (w/v) in DES, 10 mg/kg, Day 132-139, Challenge Day 112) was 92.4% and the “Average % Efficacy (Tick Weight)” value ([1]; Group 3: pour-on 10% (w/v) in DES, 10 mg/kg, Day 146-153, Challenge Day 126) was 61.4%. For the same compound, the “Average % Efficacy (Tick Weight)” value ([1]; Group 3: pour-on 10% (w/v) in DES, 10 mg/kg, Day 160-167, Challenge Day 140) was 76.3%, the efficacy against fleas (Ctenocephalides felis; until Day 50) was “above 85%” and the efficacy against fleas (Ctenocephalides felis; until at least Day 43) was “above 90%”. The “% Reduction” value (Ctenocephalides felis; Group 2: 1.0% in DMI, 1 mg/kg, Day 0 (12 hr)) was 22.3%, the “% Reduction” value (Ctenocephalides felis; Group 2: 1.0% in DMI, 1 mg/kg, Day 1) was 28.0% and the “% Reduction” value (Ctenocephalides felis; Group 2: 1.0% in DMI, 1 mg/kg, Day 8) was 99.3%. For the same compound, the “% Reduction” value (Ctenocephalides felis; Group 2: 1.0% in DMI, 1 mg/kg, Day 22) was 99.5%, the “% Reduction” value (Ctenocephalides felis; Group 2: 1.0% in DMI, 1 mg/kg, Day 29) was 98.5% and the “% Reduction” value (Ctenocephalides felis; Group 2: 1.0% in DMI, 1 mg/kg, Day 36) was 94.2%. For the same compound, the “% Reduction” value (Ctenocephalides felis; Group 2: 1.0% in DMI, 1 mg/kg, Day 43) was 94.3%, the “% Reduction” value (Ctenocephalides felis; Group 2: 1.0% in DMI, 1 mg/kg, Day 50) was 87.7% and the “% Reduction” value (Ctenocephalides felis; Group 3: 1.0% in DES, 1 mg/kg, Day 0 (12 hr)) was 9.6%. For the same compound, the “% Reduction” value (Ctenocephalides felis; Group 3: 1.0% in DES, 1 mg/kg, Day 1) was 72.7%, the “% Reduction” value (Ctenocephalides felis; Group 3: 1.0% in DES, 1 mg/kg, Day 8) was 99.7% and the “% Reduction” value (Ctenocephalides felis; Group 3: 1.0% in DES, 1 mg/kg, Day 22) was 97.4%. The “% Reduction” value (Ctenocephalides felis; Group 3: 1.0% in DES, 1 mg/kg, Day 29) was 95.1%, the “% Reduction” value (Ctenocephalides felis; Group 3: 1.0% in DES, 1 mg/kg, Day 36) was 79.3% and the “% Reduction” value (Ctenocephalides felis; Group 3: 1.0% in DES, 1 mg/kg, Day 43) was 72.2%. The “% Reduction” value (Ctenocephalides felis; Group 3: 1.0% in DES, 1 mg/kg, Day 50) was 44.8%, the “% Reduction” value (Ctenocephalides felis; Group 4: 1.0% in 9% lauryl lactate+DES, 1 mg/kg, Day 0 (12 hr)) was 9.2% and the “% Reduction” value (Ctenocephalides felis; Group 4: 1.0% in 9% lauryl lactate+DES, 1 mg/kg, Day 1) was 36.5%. The “% Reduction” value (Ctenocephalides felis; Group 4: 1.0% in 9% lauryl lactate+DES, 1 mg/kg, Day 8) was 99.7%, the “% Reduction” value (Ctenocephalides felis; Group 4: 1.0% in 9% lauryl lactate+DES, 1 mg/kg, Day 22) was 98.5% and the “% Reduction” value (Ctenocephalides felis; Group 4: 1.0% in 9% lauryl lactate+DES, 1 mg/kg, Day 29) was 98.1%. The “% Reduction” value (Ctenocephalides felis; Group 4: 1.0% in 9% lauryl lactate+DES, 1 mg/kg, Day 36) was 89.3%, the “% Reduction” value (Ctenocephalides felis; Group 4: 1.0% in 9% lauryl lactate+DES, 1 mg/kg, Day 43) was 92.7% and the “% Reduction” value (Ctenocephalides felis; Group 4: 1.0% in 9% lauryl lactate+DES, 1 mg/kg, Day 50) was 79.2%. The “% Reduction” value (Ctenocephalides felis; Group 5: 1% in 8% ethyl oleate+DES, 1 mg/kg, Day 0 (12 hr)) was 65.9%, the “% Reduction” value (Ctenocephalides felis; Group 5: 1% in 8% ethyl oleate+DES, 1 mg/kg, Day 1) was 77.2% and the “% Reduction” value (Ctenocephalides felis; Group 5: 1% in 8% ethyl oleate+DES, 1 mg/kg, Day 8) was 98.4%. The “% Reduction” value (Ctenocephalides felis; Group 5: 1% in 8% ethyl oleate+DES, 1 mg/kg, Day 22) was 96.9%, the “% Reduction” value (Ctenocephalides felis; Group 5: 1% in 8% ethyl oleate+DES, 1 mg/kg, Day 29) was 95.0% and the “% Reduction” value (Ctenocephalides felis; Group 5: 1% in 8% ethyl oleate+DES, 1 mg/kg, Day 36) was 85.5%. The “% Reduction” value (Ctenocephalides felis; Group 5: 1% in 8% ethyl oleate+DES, 1 mg/kg, Day 43) was 79.7%, the “% Reduction” value (Ctenocephalides felis; Group 5: 1% in 8% ethyl oleate+DES, 1 mg/kg, Day 50) was 64.0% and the “% Reduction” value (Ctenocephalides felis; Group 6: 1% in Transcutol+10% ethanol+5% polyvinylpyrrolidone+5% TWEEN 80, 1 mg/kg, Day 0 (12 hr)) was 17.7%. For the same compound, the “% Reduction” value (Ctenocephalides felis; Group 6: 1% in Transcutol+10% ethanol+5% polyvinylpyrrolidone+5% TWEEN 80, 1 mg/kg, Day 1) was 75.6%, the “% Reduction” value (Ctenocephalides felis; Group 6: 1% in Transcutol+10% ethanol+5% polyvinylpyrrolidone+5% TWEEN 80, 1 mg/kg, Day 8) was 100.0% and the “% Reduction” value (Ctenocephalides felis; Group 6: 1% in Transcutol+10% ethanol+5% polyvinylpyrrolidone+5% TWEEN 80, 1 mg/kg, Day 22) was 99.3%. The “% Reduction” value (Ctenocephalides felis; Group 6: 1% in Transcutol+10% ethanol+5% polyvinylpyrrolidone+5% TWEEN 80, 1 mg/kg, Day 29) was 97.5%, the “% Reduction” value (Ctenocephalides felis; Group 6: 1% in Transcutol+10% ethanol+5% polyvinylpyrrolidone+5% TWEEN 80, 1 mg/kg, Day 36) was 93.8% and the “% Reduction” value (Ctenocephalides felis; Group 6: 1% in Transcutol+10% ethanol+5% polyvinylpyrrolidone+5% TWEEN 80, 1 mg/kg, Day 43) was 93.9%. For the same compound, the “% Reduction” value (Ctenocephalides felis; Group 6: 1% in Transcutol+10% ethanol+5% polyvinylpyrrolidone+5% TWEEN 80, 1 mg/kg, Day 50) was 79.6%.
